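Method: 48-hour compound exposure of cells in 96-well plates, five concentrations, linear interpolation of endpoints. At the GI50, growth is halved. TGI marks complete inhibition of growth.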
Key:
Assay in all cases: NCI-60 cell line screen, 48 h
RXF 393 renal = tested on: RXF 393 renal
MCF7 breast = tested on: MCF7 breast
NCI-H460 lung = tested on: NCI-H460 lung
NCI-H23 lung = tested on: NCI-H23 lung
SNB-75 CNS = tested on: SNB-75 CNS
A498 renal = tested on: A498 renal
ACHN renal = tested on: ACHN renal
SK-MEL-2 melanoma = tested on: SK-MEL-2 melanoma
BT-549 breast = tested on: BT-549 breast
SN12C renal = tested on: SN12C renal
LOX IMVI melanoma = tested on: LOX IMVI melanoma
TK-10 renal = tested on: TK-10 renal
MOLT-4 leukemia = tested on: MOLT-4 leukemia
SK-MEL-28 melanoma = tested on: SK-MEL-28 melanoma
OVCAR-8 ovarian = tested on: OVCAR-8 ovarian
HCC-2998 colon = tested on: HCC-2998 colon
SF-539 CNS = tested on: SF-539 CNS
IGROV1 ovarian = tested on: IGROV1 ovarian
MDA-MB-435 = tested on: MDA-MB-435
SNB-19 CNS = tested on: SNB-19 CNS
A549 NSCLC = tested on: A549 NSCLC
M14 melanoma = tested on: M14 melanoma
HS 578T breast = tested on: HS 578T breast
RPMI-8226 leukemia = tested on: RPMI-8226 leukemia
SF-268 CNS = tested on: SF-268 CNS
UACC-257 melanoma = tested on: UACC-257 melanoma
HOP-92 NSCLC = tested on: HOP-92 NSCLC
DU-145 prostate = tested on: DU-145 prostate
OVCAR-4 ovarian = tested on: OVCAR-4 ovarian
UO-31 renal = tested on: UO-31 renal
PC-3 prostate = tested on: PC-3 prostate
OVCAR-5 ovarian = tested on: OVCAR-5 ovarian
HCT-116 colon = tested on: HCT-116 colon
SW-620 colon = tested on: SW-620 colon
UACC-62 melanoma = tested on: UACC-62 melanoma
HCT-15 colon = tested on: HCT-15 colon
MDA-MB-231 breast = tested on: MDA-MB-231 breast
NCI-H522 lung = tested on: NCI-H522 lung
786-0 renal = tested on: 786-0 renal
OVCAR-3 ovarian = tested on: OVCAR-3 ovarian
EKVX NSCLC = tested on: EKVX NSCLC
SK-OV-3 ovarian = tested on: SK-OV-3 ovarian
HT29 colon = tested on: HT29 colon
COLO 205 colon = tested on: COLO 205 colon
KM12 colon = tested on: KM12 colon
MALME-3M melanoma = tested on: MALME-3M melanoma
SK-MEL-5 melanoma = tested on: SK-MEL-5 melanoma
CCRF-CEM leukemia = tested on: CCRF-CEM leukemia
SF-295 CNS = tested on: SF-295 CNS
U251 CNS = tested on: U251 CNS
SR leukemia = tested on: SR leukemia
T-47D breast = tested on: T-47D breast
NCI/ADR-RES ovarian = tested on: NCI/ADR-RES ovarian
HOP-62 NSCLC = tested on: HOP-62 NSCLC
K-562 leukemia = tested on: K-562 leukemia
CAKI-1 renal = tested on: CAKI-1 renal
NCI-H226 lung = tested on: NCI-H226 lung

Compound: COc1cc(OC)c(C(=O)/C=C/c2cccc(C(F)(F)F)c2)c(OC)c1
- GI50 (RXF 393 renal): 1030 nM
- TGI (RXF 393 renal): 2240 nM
- GI50 (MCF7 breast): 1120 nM
- TGI (MCF7 breast): 7380 nM
- GI50 (NCI-H460 lung): 1080 nM
- TGI (NCI-H460 lung): 2670 nM
- GI50 (NCI-H23 lung): 1140 nM
- TGI (NCI-H23 lung): 3480 nM
- GI50 (SNB-75 CNS): 1880 nM
- TGI (SNB-75 CNS): 7900 nM
- GI50 (A498 renal): 1400 nM
- TGI (A498 renal): 4440 nM
- GI50 (ACHN renal): 1460 nM
- TGI (ACHN renal): 5170 nM
- GI50 (SK-MEL-2 melanoma): 1220 nM
- TGI (SK-MEL-2 melanoma): 3370 nM
- GI50 (BT-549 breast): 1080 nM
- TGI (BT-549 breast): 2840 nM
- GI50 (SN12C renal): 1520 nM
- TGI (SN12C renal): 5680 nM
- GI50 (LOX IMVI melanoma): 1040 nM
- TGI (LOX IMVI melanoma): 2420 nM
- GI50 (TK-10 renal): 1850 nM
- TGI (TK-10 renal): 6010 nM
- GI50 (MOLT-4 leukemia): 873 nM
- TGI (MOLT-4 leukemia): 3750 nM
- GI50 (SK-MEL-28 melanoma): 1510 nM
- TGI (SK-MEL-28 melanoma): 4740 nM
- GI50 (OVCAR-8 ovarian): 1410 nM
- TGI (OVCAR-8 ovarian): 5860 nM
- GI50 (HCC-2998 colon): 2110 nM
- TGI (HCC-2998 colon): 6890 nM
- GI50 (SF-539 CNS): 1370 nM
- TGI (SF-539 CNS): 3500 nM
- GI50 (IGROV1 ovarian): 1710 nM
- TGI (IGROV1 ovarian): 5600 nM
- GI50 (MDA-MB-435): 1610 nM
- TGI (MDA-MB-435): 6570 nM
- GI50 (SNB-19 CNS): 1440 nM
- TGI (SNB-19 CNS): 4670 nM
- GI50 (A549 NSCLC): 1480 nM
- TGI (A549 NSCLC): 4820 nM
- GI50 (M14 melanoma): 1060 nM
- TGI (M14 melanoma): 2620 nM
- GI50 (HS 578T breast): 3930 nM
- TGI (HS 578T breast): 28600 nM
- GI50 (RPMI-8226 leukemia): 1030 nM
- TGI (RPMI-8226 leukemia): 2850 nM
- GI50 (SF-268 CNS): 1640 nM
- TGI (SF-268 CNS): 6130 nM
- GI50 (UACC-257 melanoma): 2060 nM
- TGI (UACC-257 melanoma): 7890 nM
- GI50 (HOP-92 NSCLC): 1020 nM
- TGI (HOP-92 NSCLC): 3580 nM
- GI50 (DU-145 prostate): 1730 nM
- TGI (DU-145 prostate): 6080 nM
- GI50 (OVCAR-4 ovarian): 2240 nM
- TGI (OVCAR-4 ovarian): 8570 nM
- GI50 (UO-31 renal): 1430 nM
- TGI (UO-31 renal): 5240 nM
- GI50 (PC-3 prostate): 1640 nM
- TGI (PC-3 prostate): 6050 nM
- GI50 (OVCAR-5 ovarian): 2280 nM
- TGI (OVCAR-5 ovarian): 7040 nM
- GI50 (HCT-116 colon): 806 nM
- TGI (HCT-116 colon): 1590 nM
- GI50 (SW-620 colon): 1580 nM
- TGI (SW-620 colon): 5010 nM
- GI50 (UACC-62 melanoma): 986 nM
- TGI (UACC-62 melanoma): 2500 nM
- GI50 (HCT-15 colon): 942 nM
- TGI (HCT-15 colon): 2680 nM
- GI50 (MDA-MB-231 breast): 1760 nM
- TGI (MDA-MB-231 breast): 6050 nM
- GI50 (NCI-H522 lung): 857 nM
- TGI (NCI-H522 lung): 1940 nM
- GI50 (786-0 renal): 1660 nM
- TGI (786-0 renal): 5590 nM
- GI50 (OVCAR-3 ovarian): 2030 nM
- TGI (OVCAR-3 ovarian): 6890 nM
- GI50 (EKVX NSCLC): 1500 nM
- TGI (EKVX NSCLC): 4300 nM
- GI50 (SK-OV-3 ovarian): 3030 nM
- TGI (SK-OV-3 ovarian): 9370 nM
- GI50 (HT29 colon): 1690 nM
- TGI (HT29 colon): 4750 nM
- GI50 (COLO 205 colon): 1060 nM
- TGI (COLO 205 colon): 2210 nM
- GI50 (KM12 colon): 1790 nM
- TGI (KM12 colon): 6420 nM
- GI50 (MALME-3M melanoma): 2380 nM
- TGI (MALME-3M melanoma): 8300 nM
- GI50 (SK-MEL-5 melanoma): 1070 nM
- TGI (SK-MEL-5 melanoma): 2540 nM
- GI50 (CCRF-CEM leukemia): 1090 nM
- TGI (CCRF-CEM leukemia): 3460 nM
- GI50 (SF-295 CNS): 1670 nM
- TGI (SF-295 CNS): 6720 nM
- GI50 (U251 CNS): 1010 nM
- TGI (U251 CNS): 2100 nM
- GI50 (SR leukemia): 826 nM
- TGI (SR leukemia): 3130 nM
- GI50 (T-47D breast): 1610 nM
- TGI (T-47D breast): 9430 nM
- GI50 (NCI/ADR-RES ovarian): 1400 nM
- TGI (NCI/ADR-RES ovarian): 5950 nM
- GI50 (HOP-62 NSCLC): 1560 nM
- TGI (HOP-62 NSCLC): 5460 nM
- GI50 (K-562 leukemia): 1260 nM
- TGI (K-562 leukemia): 4830 nM
- GI50 (CAKI-1 renal): 2170 nM
- TGI (CAKI-1 renal): 7220 nM
- GI50 (NCI-H226 lung): 1160 nM
- TGI (NCI-H226 lung): 3740 nM

Reference: PubChem BioAssay (NCI)
